Test results from BindingDB's records for doi:10.1021/jm900517t.

Tests used:
Assay in all cases: HCV RNA-Dependent RNA Polymerase Assay (IC50)
Genome polyprotein [1] = target: Genome polyprotein (Hepatitis C virus genotype 2b (isolate HC-J8), UniProt P26661)
Genome polyprotein [2] = target: Genome polyprotein (Hepatitis C virus genotype 1b (isolate BK), UniProt P26663); conditions: pH 7.5; 23 °C
[3] = target: T1, Genome polyprotein [2420-2989,M2842K,R2963Q] (Hepatitis C virus genotype 1b (isolate BK), UniProt P26663, M2842K/R2963Q); conditions: pH 7.5; 23 °C
T1 construct: 2420-2989

[4] = target: T2, Genome polyprotein [2420-2989,R2920E,R2963Q] (Hepatitis C virus genotype 1b (isolate BK), UniProt P26663, R2920E/R2963Q); conditions: pH 7.5; 23 °C
T2 construct: 2420-2989
T2 sequence (P26663 2420-2997, looked up, stated change not applied): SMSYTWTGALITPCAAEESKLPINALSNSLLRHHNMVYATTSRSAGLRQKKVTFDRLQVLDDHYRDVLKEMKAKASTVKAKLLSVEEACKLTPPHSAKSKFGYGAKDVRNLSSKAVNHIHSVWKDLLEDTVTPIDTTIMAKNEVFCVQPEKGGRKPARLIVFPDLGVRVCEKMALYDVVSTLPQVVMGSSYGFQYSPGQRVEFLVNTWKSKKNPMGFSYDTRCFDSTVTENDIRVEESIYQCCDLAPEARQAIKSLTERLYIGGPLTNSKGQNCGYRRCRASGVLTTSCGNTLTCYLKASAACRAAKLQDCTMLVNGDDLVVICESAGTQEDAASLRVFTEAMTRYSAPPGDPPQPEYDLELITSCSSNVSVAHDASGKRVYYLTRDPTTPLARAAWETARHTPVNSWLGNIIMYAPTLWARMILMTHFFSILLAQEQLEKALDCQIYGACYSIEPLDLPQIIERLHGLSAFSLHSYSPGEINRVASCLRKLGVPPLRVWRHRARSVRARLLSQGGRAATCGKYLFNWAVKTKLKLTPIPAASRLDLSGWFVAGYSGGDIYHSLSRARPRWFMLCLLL

Sequence of Genome polyprotein (Hepatitis C virus genotype 2b (isolate HC-J8), UniProt P26661) (P26661 2443-3033 limits assumed): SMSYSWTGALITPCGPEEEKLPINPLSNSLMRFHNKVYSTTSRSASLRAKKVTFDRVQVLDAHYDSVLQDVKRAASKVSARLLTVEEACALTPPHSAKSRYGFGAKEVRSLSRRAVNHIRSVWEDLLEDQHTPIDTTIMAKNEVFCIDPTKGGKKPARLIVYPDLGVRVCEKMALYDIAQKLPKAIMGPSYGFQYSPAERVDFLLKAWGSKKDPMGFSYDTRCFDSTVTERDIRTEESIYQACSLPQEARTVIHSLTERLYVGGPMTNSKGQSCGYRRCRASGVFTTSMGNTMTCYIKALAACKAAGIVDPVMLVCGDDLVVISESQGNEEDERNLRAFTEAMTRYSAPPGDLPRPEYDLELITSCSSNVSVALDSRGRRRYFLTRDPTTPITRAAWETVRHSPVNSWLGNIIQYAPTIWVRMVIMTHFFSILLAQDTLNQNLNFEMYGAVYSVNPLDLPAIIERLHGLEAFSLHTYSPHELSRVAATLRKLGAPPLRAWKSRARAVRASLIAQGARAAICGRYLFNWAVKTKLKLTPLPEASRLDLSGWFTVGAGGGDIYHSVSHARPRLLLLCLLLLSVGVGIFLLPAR
Sequence of Genome polyprotein (Hepatitis C virus genotype 1b (isolate BK), UniProt P26663) (P26663 2420-3010 limits assumed): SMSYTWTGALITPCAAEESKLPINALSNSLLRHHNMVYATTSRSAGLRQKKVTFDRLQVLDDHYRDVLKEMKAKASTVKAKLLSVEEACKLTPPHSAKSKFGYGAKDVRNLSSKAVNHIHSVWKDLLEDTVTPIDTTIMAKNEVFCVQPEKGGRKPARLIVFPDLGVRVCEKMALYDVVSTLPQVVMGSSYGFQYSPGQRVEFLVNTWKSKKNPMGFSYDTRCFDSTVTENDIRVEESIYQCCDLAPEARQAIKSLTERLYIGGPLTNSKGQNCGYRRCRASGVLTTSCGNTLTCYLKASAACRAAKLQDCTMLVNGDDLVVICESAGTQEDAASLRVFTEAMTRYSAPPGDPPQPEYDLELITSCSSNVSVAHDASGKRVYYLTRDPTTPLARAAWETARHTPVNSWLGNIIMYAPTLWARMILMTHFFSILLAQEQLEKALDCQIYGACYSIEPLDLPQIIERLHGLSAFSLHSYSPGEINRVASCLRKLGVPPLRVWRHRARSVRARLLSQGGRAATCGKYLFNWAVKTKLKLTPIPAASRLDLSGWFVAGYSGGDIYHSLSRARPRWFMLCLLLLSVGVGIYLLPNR
T1 sequence (P26663 2420-2997, looked up, stated change not applied): as the sequence (P26663 2420-2997, looked up, stated change not applied) above

Row | SMILES | IC50 (Genome polyprotein [1]) | IC50 (Genome polyprotein [2]) | IC50 [3] | IC50 [4]
1 | O=C1c2cccc3c(NCCO)ccc(c23)C(=O)N1c1cccc(F)c1 [1H-benzo[de]isoquinoline-1,3(2H)-dione, 13] | > 50 µM | – | – | –
2 | NS(=O)(=O)c1cccc(N2C(=O)c3cccc4c(NCCO)ccc(c34)C2=O)c1 [1H-benzo[de]isoquinoline-1,3(2H)-dione, 14] | > 50 µM | – | – | –
3 | OCCNc1ccc2c3c(cccc13)CN(c1cccc(Br)c1)C2 [benzo[de]isoquinoline, 11] | > 50 µM | > 50 µM | – | –
4 | CC(C)N(c1cc(-c2ccccc2)sc1C(=O)O)C(=O)[C@H]1CC[C@H](C)CC1 [thiophene scaffold, 21] | > 10 µM | – | > 0.5 µM | 0.1 µM

The next lines start with results.

Row | IC50 (Genome polyprotein [1]) | IC50 (Genome polyprotein [2]) | SMILES | IC50 [3] | IC50 [4]
5 | > 50 µM | – | O=C1c2cccc3c(NCCO)ccc(c23)C(=O)N1c1ccccc1 [1H-benzo[de]isoquinoline-1,3(2H)-dione, 4] | – | –
6 | > 50 µM | > 50 µM | O=C1c2cccc3cccc(c23)C(=O)N1c1cccc(Br)c1 [1H-benzo[de]isoquinoline-1,3(2H)-dione, 5] | – | –
